Results published in patent US20250129090A1, “COMPOSITIONS USEFUL FOR MODULATING SPLICING” (SKYHAWK THERAPEUTICS, INC., priority 2021, published 2025).

Key:
total ATXN3 protein = assay: ATXN3 Total Protein Assay; format: cell-based; details: Human neuroblastoma SK-N-MC cells, incubation 48 hours, MSD assay; read-out: ATXN3 Protein Potency IC50
Description: Human neuroblastoma SK-N-MC cells were seeded at 10,000 cells/well in 384 well plates one day prior to compound treatment. The concentrations of compounds were tested at appropriate doses ranging from 30 μM to 0.6 nM. After incubation for 48 hours, the cells were lysed with 25 μL of lysis buffer containing protease inhibitors, and total ATXN3 protein levels were assessed by Mesoscale Discovery (MSD) assay developed with one pair of anti-ATXN3 antibodies. The capture and detect antibodies were raised in mouse and rabbit respectively. Anti-rabbit MSD-ST antibody was used for secondary antibody.
ATXN3 recombinant protein was used for standards. The readouts were captured with 35 μL of MSD read buffer and multi-array 384-well high binding plates.

[1] = test system: exon 4 skipped transcripts of ATXN3; assay: ATXN3 Quantitative Splicing Assay; format: cell-based; details: Human neuroblastoma SK-N-MC cells, treated 24 h, qPCR; read-out: ATXN 3 E4 Skipping EC50
Description: Human neuroblastoma SK-N-MC cells were plated in 384-well plates at 20,000 cells/well. Twenty-four hours after plating, cells were treated with compounds for 24 h at appropriate concentrations ranging from 30 µM to 0.6 nM (0.3% DMSO). Treated cells were lysed in 15 μL of lysis buffer, and cDNA was synthesized using the Fast Advanced Cells-to-Ct kit. Two μL of each cDNA was used in qPCR reactions to confirm the exon 4 skipped transcripts of ATXN3. A second set of primers/probe E4E5 was used to detect the transcripts containing exon 4. The third set of primers/probe E8E9 was used to detect total gene level of ATXN3. The qPCR reactions were prepared in 384-well plates in 10 μL volume, using TaqMan™ Fast Advanced Master Mix with primers and probes shown in the table below. Reactions were run in a Quant Studio 6 qPCR instrument with default settings.
The primers and probes are listed below in Table 3.

Compound | IC50 (total ATXN3 protein) [µM] | EC50 [1] [µM]
Cc1csc2c(NCc3cccs3)nnnc12 [Compound 1, 7-methyl-N-(thiophen-2-ylmethyl)thieno[3,2-d][1,2,3]triazin-4-amine] | ≥ 10 | ≥ 10
Cc1c(C[C@H](C)N)sc2c(NCc3cccs3)nnnc12 [Compound 2, (S)-6-(2-aminopropyl)-7-methyl-N-(thiophen-2-ylmethyl)thieno[3,2-d][1,2,3]triazin-4-amine] | 0.501 to 5 | 0.501 to 5
Cc1csc2c(NCc3ccco3)nnnc12 [Compound 3, N-(furan-2-ylmethyl)-7-methylthieno[3,2-d][1,2,3]triazin-4-amine] | ≥ 10 | ≥ 10
Cc1c(C[C@H](C)N)sc2c(NCc3ccco3)nnnc12 [Compound 4, (S)-6-(2-aminopropyl)-N-(furan-2-ylmethyl)-7-methylthieno[3,2-d][1,2,3]triazin-4-amine] | 0.501 to 5 | ≥ 10
